In US20210382058A1, “PATIENT SELECTION FOR TREATMENT OF MYC POSITIVE CANCERS WITH INDENOISOQUINOLINES” (Purdue Research Foundation, priority 2020, published 2021):
Like-named read-outs stand apart in the source and are kept apart here.

Experiments:
[1] = test system: NCI-60 cancer cell lines; assay: NCI-60 cancer cell line drug screen (GI50, MGM); format: cell-based, human; details: for GI50 / mean GI50 across NCI-60 panel (MGM): Homo sapiens; for GI50: read-out: Antiproliferative Activities [GI50 (μM)]; for mean GI50 across NCI-60 panel (MGM): average of GI50 values across the entire panel of NCI-60 cancer cell lines
Method: Cancer cells were incubated with the test compounds at five concentrations ranging from 100 μM to 10 nM for 48 h. […] The approximate average of GI50 values across the entire panel of NCI-60 cancer cell lines for each compound was recorded as the MGM value.

[2] = test system: MYC protein expression in MCF-7 breast cancer cells; assay: Western blotting of MYC protein level in MCF-7 cells; format: cell-based, human; details: for MYC-inhibitory effect (MYC protein, western blot): MCF-7, 0.5, 1, 2, and 4 μM, 24 h
Method: MCF-7 cells were incubated with each compound at four concentrations (0.5, 1, 2, and 4 μM) for 24 hours, and the MYC protein levels were measured (FIG. 3A and FIGS. 12 A to 12 F).
Cells were incubated at 37° C. with 5% CO2.
The gels were cut into strips that contained the proteins of interest and transferred to nitrocellulose membrane (I323002, Invitrogen) using an iBlot 2 Dry Transfer Device (Invitrogen). Immunoblotting was carried out according to standard procedures using the ECL detection method. The membrane was hybridized with the following antibodies: monoclonal anti-MYC (1:1000 dilution; rabbit, Cell Signaling Technology), monoclonal anti-GAPDH (1:2000 dilution; rabbit, Cell Signaling Technology).

[3] = A549, Non-Small Cell Lung Cancer, A549/ATCC
[4] = COLO 205, Colon Cancer, COLO 205
[5] = DU-145, Prostate Cancer, DU-145
[6] = EKVX, Non-Small Cell Lung Cancer, EKVX
[7] = HCC 2998, Colon Cancer, HCC-2998
[8] = HOP-62, Non-Small Cell Lung Cancer, HOP-62
[9] = HOP-92, Non-Small Cell Lung Cancer, HOP-92
[10] = Hs-578T, Breast Cancer, HS 578T
[11] = MDA-MB-231, Breast Cancer, MDA-MB-231/ATCC
[12] = MDA-MB-435, Melanoma, MDA-MB-435
[13] = NCI-H23, Non-Small Cell Lung Cancer, NCI-H23
[14] = NCI-H226, Non-Small Cell Lung Cancer, NCI-H226
[15] = NCI-H322M, Non-Small Cell Lung Cancer, NCI-H322M
[16] = NCI-H460, Non-Small Cell Lung Cancer, NCI-H460
[17] = NCI-H522, Non-Small Cell Lung Cancer, NCI-H522
[18] = OVCAR-3, Ovarian Cancer, OVCAR-3
[19] = OVCAR-4, Ovarian Cancer, OVCAR-4
[20] = OVCAR-5, Ovarian Cancer, OVCAR-5
[21] = OVCAR-8, Ovarian Cancer, OVCAR-8
[22] = SK-OV-3, Ovarian Cancer, SK-OV-3

With `COc1cnc2c(c1)C(=O)c1c-2n(CCCNC2=NCCS2)c(=O)c2cc([N+](=O)[O-])ccc12` [Compound 12] the GI50 ([1]; 786-0, Renal Cancer, 786-0) was 0.02 µM, the GI50 [1, 3] was 0.04 µM and the GI50 ([1]; ACHN, Renal Cancer, ACHN) was under 0.01 µM. It also gave a GI50 ([1]; BT-549, Breast Cancer, BT-549) of 0.05 µM, a GI50 ([1]; CAKI-1, Renal Cancer, CAKI-1) of under 0.01 µM and a GI50 ([1]; CCRF-CEM, Leukemia, CCRF-CEM) of under 0.01 µM. For the same compound, the GI50 [1, 4] was 0.24 µM, the GI50 [1, 5] was under 0.01 µM and the GI50 [1, 6] was 1.01 µM. It also gave a GI50 [1, 7] of 1.03 µM, a GI50 ([1]; HCT-15, Colon Cancer, HCT-15) of 1.17 µM and a GI50 ([1]; HL-60, Leukemia, HL-60(TB)) of under 0.01 µM. It also gave a GI50 [1, 8] of 0.01 µM, a GI50 [1, 9] of 1.38 µM and a GI50 ([1]; HT-29, Colon Cancer, HT29) of 0.03 µM. It also gave a GI50 [1, 10] of 1.82 µM, a GI50 ([1]; IGROV-1, Ovarian Cancer, IGROV1) of 0.08 µM and a GI50 ([1]; K562, Leukemia, K-562) of 0.11 µM. The GI50 ([1]; KM12, Colon Cancer, KM12) was 1.11 µM, the GI50 ([1]; LOX IMVI, Melanoma, LOX IMVI) was under 0.01 µM and the GI50 ([1]; Leukemia, SR) was under 0.01 µM. For the same compound, the GI50 ([1]; MCF7, Breast Cancer, MCF7) was under 0.01 µM, the GI50 [1, 11] was 1.61 µM and the GI50 [1, 12] was 0.48 µM. The GI50 ([1]; MDA-MB-468, Breast Cancer, MDA-MB-468) was 0.03 µM, the GI50 ([1]; MOLT-4, Leukemia, MOLT-4) was under 0.01 µM and the GI50 ([1]; Malme-3M, Melanoma, MALME-3M) was 0.62 µM. The GI50 ([1]; Melanoma, M14) was under 0.01 µM, the GI50 [1, 13] was 0.02 µM and the GI50 [1, 14] was 0.04 µM. For the same compound, the GI50 [1, 15] was 0.04 µM, the GI50 [1, 16] was under 0.01 µM and the GI50 [1, 17] was under 0.01 µM. The GI50 [1, 18] was 0.14 µM, the GI50 [1, 19] was 0.48 µM and the GI50 [1, 20] was 1.04 µM. It also gave a GI50 [1, 21] of 0.02 µM, a GI50 ([1]; Ovarian Cancer, NCl/ADR-RES) of 0.02 µM and a GI50 ([1]; Prostate Cancer, PC-3) of 1.28 µM. For the same compound, the GI50 ([1]; RPMI-8226, Leukemia, RPMI-8226) was 0.03 µM, the GI50 ([1]; RXF 393, Renal Cancer, RXF 393) was 0.03 µM and the GI50 ([1]; Renal Cancer, U0-31) was under 0.01 µM. The GI50 ([1]; SF-268, CNS Cancer, SF-268) was under 0.01 µM, the GI50 ([1]; SF-295, CNS Cancer, SF-295) was 0.01 µM and the GI50 ([1]; SF-539, CNS Cancer, SF-539) was 0.04 µM. It also gave a GI50 ([1]; SK-MEL-2, Melanoma, SK-MEL-2) of 1.56 µM, a GI50 ([1]; SK-MEL-5, Melanoma, SK-MEL-5) of 0.03 µM and a GI50 ([1]; SK-MEL-28, Melanoma, SK-MEL-28) of 1.18 µM. For the same compound, the GI50 [1, 22] was 0.01 µM, the GI50 ([1]; SN12C, Renal Cancer, SN12C) was under 0.01 µM and the GI50 ([1]; SNB-19, CNS Cancer, SNB-19) was 0.01 µM. For the same compound, the GI50 ([1]; SNB-75, CNS Cancer, SNB-75) was 0.03 µM, the GI50 ([1]; SW-620, Colon Cancer, SW-620) was 0.01 µM and the GI50 ([1]; T47D, Breast Cancer, T-47D) was under 0.01 µM. It also gave a GI50 ([1]; TK-10, Renal Cancer, TK-10) of 1.34 µM, a GI50 ([1]; U-251, CNS Cancer, U251) of under 0.01 µM and a GI50 ([1]; UACC-62, Melanoma, UACC-62) of under 0.01 µM. The GI50 ([1]; UACC-257, Melanoma, UACC-257) was 0.58 µM, the mean GI50 across NCI-60 panel (MGM) [1] was 55 nM and the “anticancer activity (GI50 profile) in words” value ([1]; NCI-60 panel) was “more potent anticancer activities compared to compounds 4 and 20”. The “MYC-inhibitory effect (MYC protein, western blot)” value [2] was “clear MYC-inhibitory effect”.
`O=C1c2ccccc2-c2c1c1ccccc1c(=O)n2CCCNCCO` [Compound 13] gave a GI50 ([1]; 786-0, Renal Cancer, 786-0) of 0.06 µM, a GI50 ([1]; A498, Renal Cancer, A498) of 0.13 µM and a GI50 [1, 3] of 0.06 µM. It also gave a GI50 ([1]; ACHN, Renal Cancer, ACHN) of 0.04 µM, a GI50 ([1]; BT-549, Breast Cancer, BT-549) of 0.28 µM and a GI50 ([1]; CAKI-1, Renal Cancer, CAKI-1) of 0.24 µM. For the same compound, the GI50 ([1]; CCRF-CEM, Leukemia, CCRF-CEM) was 0.01 µM, the GI50 [1, 4] was 0.07 µM and the GI50 [1, 5] was 0.06 µM. It also gave a GI50 [1, 6] of 0.43 µM, a GI50 [1, 7] of 0.19 µM and a GI50 ([1]; HCT-15, Colon Cancer, HCT-15) of 0.15 µM. For the same compound, the GI50 ([1]; HCT-116, Colon Cancer, HCT-116) was 0.04 µM, the GI50 ([1]; HL-60, Leukemia, HL-60(TB)) was 0.21 µM and the GI50 [1, 8] was 0.03 µM. It also gave a GI50 [1, 9] of 0.15 µM, a GI50 ([1]; HT-29, Colon Cancer, HT29) of 0.12 µM and a GI50 [1, 10] of 0.66 µM. It also gave a GI50 ([1]; K562, Leukemia, K-562) of 0.18 µM, a GI50 ([1]; KM12, Colon Cancer, KM12) of 0.19 µM and a GI50 ([1]; LOX IMVI, Melanoma, LOX IMVI) of 0.05 µM. It also gave a GI50 ([1]; Leukemia, SR) of under 0.01 µM, a GI50 ([1]; MCF7, Breast Cancer, MCF7) of under 0.01 µM and a GI50 [1, 11] of 0.68 µM. It also gave a GI50 [1, 12] of 0.39 µM, a GI50 ([1]; MOLT-4, Leukemia, MOLT-4) of under 0.01 µM and a GI50 ([1]; Malme-3M, Melanoma, MALME-3M) of 0.21 µM. The GI50 ([1]; Melanoma, M14) was 0.32 µM, the GI50 [1, 13] was 0.21 µM and the GI50 [1, 14] was 1.42 µM. The GI50 [1, 15] was 0.34 µM, the GI50 [1, 16] was under 0.01 µM and the GI50 [1, 17] was 0.02 µM. The GI50 [1, 18] was 0.41 µM, the GI50 [1, 19] was 0.23 µM and the GI50 [1, 20] was 0.38 µM. The GI50 [1, 21] was 0.07 µM, the GI50 ([1]; Ovarian Cancer, NCl/ADR-RES) was 1.04 µM and the GI50 ([1]; Prostate Cancer, PC-3) was 0.28 µM. The GI50 ([1]; RPMI-8226, Leukemia, RPMI-8226) was 0.1 µM, the GI50 ([1]; RXF 393, Renal Cancer, RXF 393) was 0.96 µM and the GI50 ([1]; Renal Cancer, U0-31) was 0.1 µM. The GI50 ([1]; SF-268, CNS Cancer, SF-268) was 0.07 µM, the GI50 ([1]; SF-295, CNS Cancer, SF-295) was 0.08 µM and the GI50 ([1]; SF-539, CNS Cancer, SF-539) was 0.11 µM. The GI50 ([1]; SK-MEL-2, Melanoma, SK-MEL-2) was 0.55 µM, the GI50 ([1]; SK-MEL-5, Melanoma, SK-MEL-5) was 0.07 µM and the GI50 ([1]; SK-MEL-28, Melanoma, SK-MEL-28) was 1.11 µM. For the same compound, the GI50 [1, 22] was 0.22 µM, the GI50 ([1]; SN12C, Renal Cancer, SN12C) was 0.16 µM and the GI50 ([1]; SNB-19, CNS Cancer, SNB-19) was 0.11 µM. The GI50 ([1]; SNB-75, CNS Cancer, SNB-75) was 0.23 µM, the GI50 ([1]; SW-620, Colon Cancer, SW-620) was 0.04 µM and the GI50 ([1]; T47D, Breast Cancer, T-47D) was 0.05 µM. The GI50 ([1]; TK-10, Renal Cancer, TK-10) was 0.41 µM, the GI50 ([1]; U-251, CNS Cancer, U251) was 0.1 µM and the GI50 ([1]; UACC-62, Melanoma, UACC-62) was 0.55 µM. For the same compound, the GI50 ([1]; UACC-257, Melanoma, UACC-257) was 1.18 µM, the mean GI50 across NCI-60 panel (MGM) [1] was 140 nM and the minimal effective concentration ([2]; Homo sapiens, MCF7, western blotting, MCF-7 cells, 0.5, 1, 2, and 4 μM, 24 hours, read-out: MYC Inhibition) was 0.5 to 1 µM. For the same compound, the “MYC-inhibitory effect (MYC protein, western blot)” value [2] was “clear MYC-inhibitory effect”.
